Target: T1, human URAT1 (Homo sapiens, UniProt Q96S37)
T1 construct: Human URAT1 full length cDNA was subcloned to expression vector pcDNA3.1; expressed in transfected cells; host or cells: HEK293 cells (pcDNA3.1, geneticin-selected)
T1 sequence (Q96S37 1-553): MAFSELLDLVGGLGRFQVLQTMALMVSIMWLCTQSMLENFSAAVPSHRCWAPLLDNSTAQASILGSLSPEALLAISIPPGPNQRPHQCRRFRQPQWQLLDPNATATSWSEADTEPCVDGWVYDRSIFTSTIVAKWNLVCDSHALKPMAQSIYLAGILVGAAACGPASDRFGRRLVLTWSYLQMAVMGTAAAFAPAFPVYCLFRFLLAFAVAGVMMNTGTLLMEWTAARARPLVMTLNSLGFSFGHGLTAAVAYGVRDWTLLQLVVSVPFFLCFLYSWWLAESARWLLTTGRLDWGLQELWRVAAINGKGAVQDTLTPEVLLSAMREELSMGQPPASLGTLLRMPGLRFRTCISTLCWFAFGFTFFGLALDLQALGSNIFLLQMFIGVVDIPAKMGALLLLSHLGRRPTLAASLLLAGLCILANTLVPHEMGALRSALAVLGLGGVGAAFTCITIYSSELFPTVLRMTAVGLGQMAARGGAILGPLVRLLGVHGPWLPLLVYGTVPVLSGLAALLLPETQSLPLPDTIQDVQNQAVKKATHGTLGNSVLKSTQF
Assay: Uric acid transport inhibitory test using human URAT1-expressing cells
Format: cell-based
Conditions: human URAT1 expressing HEK293 cells, uptake of 14C-labeled uric acid for 5 min, room temperature; read-out: hURAT1 (IC50, concentration necessary for inhibiting the uric acid transport rate by 50%)
From the text: Reference Experimental Example 1 Uric Acid Transport Inhibitory Test Using Human Urat1-Expressing Cells
Human URAT1 full length cDNA was subcloned to expression vector pcDNA3.1 and human URAT1 gene was transfected into human embryonic kidney derived cell line (HEK293 cells) by liposome method using Lipofectamine2000. Simultaneously, HEK293 cells transfected with expression vector pcDNA3.1 alone (hereinafter mock cells) were also produced. HEK293 cells expressing human URAT1 gene or mock cells were selected with geneticin resistance as an index. The functional expression of human URAT1 gene was confirmed by a method similar to the following method, using transport of uric acid labeled with ^14C into the cells as an index.
Human URAT1 expressing HEK293 cells or mock cells were cultured in Dulbecco's modified Eagle's MEM medium (high glucose) containing 10% fetal bovine serum, 0.5 mg/mL geneticin sulfate, 100 units/mL penicillin and 100 μg/mL streptomycin under the conditions of 37° C. and 5% CO2 in an incubator. The cells were plated in a 96 well plate (poly-D-Lysine coated) at 1×10^5 cells/well and the following uric acid transport inhibitory test was performed 24 hr later. This test was performed at room temperature.
After the medium was removed by aspiration from each well, the cells were washed once with Hank's Balanced Salt Solution (HBSS) and preincubated with HBSS ([…]) for 5 min. HBSS was aspirated and an assay buffer (wherein NaCl in the above-mentioned HBSS had been substituted with Na-gluconate) containing various concentrations of the Example compound and a radioactive ligand (uric acid labeled with 14C; final concentration […]) was added to each well at […] and an uptake reaction was carried out for 5 min. After the reaction, the cells were washed twice with ice-cold HBSS ([…]), and Microscin ti TM 20 (PerkinElmer) was added at […]. The cells were lysed by stirring and the radioactivity of each well was measured in a liquid scintillation counter (TOP COUNT, Packard).
The uric acid transport rate (%) of the Example compound at each concentration was calculated relative to the radioactivity (difference in radioactivity between human URAT1 expressing HEK293 cells and mock cells without addition of Example compound (DMSO addition)) showing URAT1 specific uric acid transport as 100%, and the concentration (IC50) of the Example compound necessary for inhibiting the uric acid transport rate by 50% was determined. In Table-Table, “+++” means IC50 value of less than 100 nM, “++” means IC50 value of 100 nM to less than 1000 nM, and “+” means IC50 value of 1000 nM to less than 3000 nM.

SMILES | IC50
Nc1ccc2c(c1)N(C(=O)c1cc(Cl)c(O)c(Cl)c1)CCO2 [Example 68, (6-amino-2,3-dihydrobenzo[1,4]oxazin-4-yl)-(3,5-dichloro-4-hydroxyphenyl)-methanone] | 100 to 1000 nM
CCOC(=O)COc1c(Cl)cc(C(=O)N2CCOc3ccccc32)cc1Cl [Example 91, ethyl [2,6-dichloro-4-(2,3-dihydrobenzo[1,4]oxazine-4-carbonyl)phenoxy]acetate] | 1000 to 3000 nM
CCS(=O)(=O)c1ccc2c(c1)N(C(=O)c1cc(Cl)c(O)c(Cl)c1)CCO2 [Example 84, (3,5-dichloro-4-hydroxyphenyl)-(6-ethanesulfonyl-2,3-dihydrobenzo[1,4]oxazin-4-yl)-methanone] | 1000 to 3000 nM
O=C(c1cc(Br)c(O)c(Br)c1)N1CCOc2ccccc21 [Example 4, (3,5-dibromo-4-hydroxyphenyl)-(2,3-dihydrobenzo[1,4]oxazin-4-yl)-methanone] | < 100 nM
CN1CCN(C(=O)c2cc(Cl)c(O)c(Cl)c2)c2ccccc21 [Example 74, (3,5-dichloro-4-hydroxyphenyl)-(4-methyl-3,4-dihydro-2H-quinoxalin-1-yl)-methanone] | 100 to 1000 nM
O=C(c1ccc(O)c(C(F)(F)F)c1)N1CCOc2ccccc21 [Example 39, (2,3-dihydrobenzo[1,4]oxazin-4-yl)-(4-hydroxy-3-trifluoromethylphenyl)-methanone] | < 100 nM
O=C(c1cc(Br)c(O)c(Br)c1)N1CCOc2ccc(F)cc21 [Example 79, (3,5-dibromo-4-hydroxyphenyl)-(6-fluoro-2,3-dihydrobenzo[1,4]oxazin-4-yl)-methanone] | < 100 nM
O=C(c1cc(Cl)c(O)c(Cl)c1)N1CCOc2ccc([N+](=O)[O-])cc21 [Example 67, (3,5-dichloro-4-hydroxyphenyl)-(6-nitro-2,3-dihydrobenzo[1,4]oxazin-4-yl)-methanone] | < 100 nM
CCN(CC)S(=O)(=O)c1ccc2c(c1)N(C(=O)c1cc(Cl)c(O)c(Cl)c1)CCO2 [Example 21, 4-(3,5-dichloro-4-hydroxybenzoyl)-3,4-dihydro-2H-benzo[1,4]oxazine-6-sulfonic acid diethylamide] | 100 to 1000 nM
COC(=O)c1cccc2c1N(C(=O)c1cc(Cl)c(O)c(Cl)c1)CCO2 [Example 58, methyl 4-(3,5-dichloro-4-hydroxybenzoyl)-3,4-dihydro-2H-benzo[1,4]oxazine-5-carboxylate] | 100 to 1000 nM
CC(=O)Oc1c(Cl)cc(C(=O)N2CCOc3ccccc32)cc1Cl [Example 87, 2,6-dichloro-4-(2,3-dihydrobenzo[1,4]oxazine-4-carbonyl)-phenyl acetate] | 100 to 1000 nM
O=C(c1cc([N+](=O)[O-])c(O)c([N+](=O)[O-])c1)N1CCOc2ccccc21 [Example 30, (2,3-dihydrobenzo[1,4]oxazin-4-yl)-(4-hydroxy-3,5-dinitrophenyl)-methanone] | 100 to 1000 nM
O=C(c1cc(Br)c(O)c(Br)c1)N1CCOc2ccc3ccccc3c21 [Example 80, (3,5-dibromo-4-hydroxyphenyl)-(2,3-dihydronaphtho[2,1-b][1,4]oxazin-1-yl)-methanone] | < 100 nM
O=C(c1cc(Cl)c(O)c(Cl)c1)N1CCOc2cccnc21 [Example 36, (3,5-dichloro-4-hydroxyphenyl)-(2,3-dihydropyrido[3,2-b][1,4]oxazin-4-yl)-methanone] | 100 to 1000 nM
O=C(c1ccc(O)c(Cl)c1)N1CCOc2ccccc21 [Example 1, (3-chloro-4-hydroxyphenyl)-(2,3-dihydrobenzo[1,4]oxazin-4-yl)-methanone] | < 100 nM
O=C(c1cc(Cl)c(O)c(Cl)c1)N1CCCCc2ccccc21 [Example 27, (3,5-dichloro-4-hydroxyphenyl)-(2,3,4,5-tetrahydrobenzo[b]azepin-1-yl)-methanone] | 100 to 1000 nM

SMILES | IC50
O=C(c1cc(Cl)c(O)c(Cl)c1)N1CCOc2ccc(-c3ccccc3)cc21 [Example 65, (3,5-dichloro-4-hydroxyphenyl)-(6-phenyl-2,3-dihydrobenzo[1,4]oxazin-4-yl)-methanone] | 1000 to 3000 nM
O=C(c1cc(Cl)c(O)c(Cl)c1O)N1CCOc2ccccc21 [Example 50, (3,5-dichloro-2,4-dihydroxyphenyl)-(2,3-dihydrobenzo[1,4]oxazin-4-yl)-methanone] | 100 to 1000 nM
O=C(c1cc(Cl)c(O)c(Cl)c1)N1CCOc2ccc(CO)cc21 [Example 56, (3,5-dichloro-4-hydroxyphenyl)-(6-hydroxymethyl-2,3-dihydrobenzo[1,4]oxazin-4-yl)-methanone] | 100 to 1000 nM
COc1ccc2c(c1)N(C(=O)c1cc(Cl)c(O)c(Cl)c1)CCO2 [Example 17, (3,5-dichloro-4-hydroxyphenyl)-(6-methoxy-2,3-dihydrobenzo[1,4]oxazin-4-yl)-methanone] | < 100 nM
O=C(c1cc(Cl)c(O)c(Cl)c1)N1CCc2ccccc21 [Example 77, (3,5-dichloro-4-hydroxyphenyl)-(2,3-dihydroindol-1-yl)-methanone] | 100 to 1000 nM
O=C(c1cc(Br)c(O)c(Br)c1)N1CCOc2ccc([N+](=O)[O-])cc21 [Example 69, (3,5-dibromo-4-hydroxyphenyl)-(6-nitro-2,3-dihydrobenzo[1,4]oxazin-4-yl)-methanone] | < 100 nM
O=C(c1cc(Cl)c(O)c(Cl)c1)N1CCCOc2ccccc21 [Example 95, (3,5-dichloro-4-hydroxyphenyl)-(7,8-dihydro-6H-5-oxa-9-azabenzocyclohepten-9-yl)-methanone] | 100 to 1000 nM
COc1ccc2c(c1)OCCN2C(=O)c1cc(Cl)c(O)c(Cl)c1 [Example 18, (3,5-dichloro-4-hydroxyphenyl)-(7-methoxy-2,3-dihydrobenzo[1,4]oxazin-4-yl)-methanone] | 100 to 1000 nM
O=C(c1ccc(Cl)c(O)c1)N1CCOc2ccccc21 [Example 41, (4-chloro-3-hydroxyphenyl)-(2,3-dihydrobenzo[1,4]oxazin-4-yl)-methanone] | 100 to 1000 nM
Cc1cccc2c1N(C(=O)c1cc(Cl)c(O)c(Cl)c1)CCO2 [Example 14, (3,5-dichloro-4-hydroxyphenyl)-(5-methyl-2,3-dihydrobenzo[1,4]oxazin-4-yl)-methanone] | < 100 nM
Cc1ccc2c(c1)N(C(=O)c1cc(Br)c(O)c(Br)c1)CCO2 [Example 81, (3,5-dibromo-4-hydroxyphenyl)-(6-methyl-2,3-dihydrobenzo[1,4]oxazin-4-yl)-methanone] | < 100 nM
O=C(c1cc(Cl)c(O)c(Cl)c1)N1CCCc2ccccc21 [Example 26, (3,5-dichloro-4-hydroxyphenyl)-(3,4-dihydro-2H-quinolin-1-yl)-methanone] | 100 to 1000 nM
O=C(c1cc(Cl)c(O)c(Cl)c1)N1CCOc2ccc(O)cc21 [Example 19, (3,5-dichloro-4-hydroxyphenyl)-(6-hydroxy-2,3-dihydrobenzo[1,4]oxazin-4-yl)-methanone] | 100 to 1000 nM
Cc1ccc2c(c1)OCCN2C(=O)c1cc(Cl)c(O)c(Cl)c1 [Example 13, (3,5-dichloro-4-hydroxyphenyl)-(7-methyl-2,3-dihydrobenzo[1,4]oxazin-4-yl)-methanone] | 100 to 1000 nM
Nc1ccc2c(c1)CCN2C(=O)c1cc(Cl)c(O)c(Cl)c1 [Example 78, (5-amino-2,3-dihydroindol-1-yl)-(3,5-dichloro-4-hydroxyphenyl)-methanone] | 100 to 1000 nM
O=C(c1cc(Cl)c(O)c(Cl)c1)N1CCNc2ccccc21 [Example 54, (3,5-dichloro-4-hydroxyphenyl)-(3,4-dihydro-2H-quinoxalin-1-yl)-methanone] | 100 to 1000 nM

Reference: US20080064871A1, “Production Method of Nitrogen-Containing Fused Ring Compounds” (Japan Tobacco Inc., priority 2006, published 2008)
